Experimental data reported in patent publication US20260242478A1, “ANTIBODIES FOR TARGETING PSMA AND CD28 AND USES THEREOF” (Janux Therapeutics, Inc., priority 2023, published 2026).
Where no end group is shown, it is not given here.

Target: anti-CD28 Fab (SEQ ID NOs: 696, 697)
Assay: anti-CD28 Fab binding to peptides, ELISA
Settings: Table 25; anti-CD28 Fab

Sequence of anti-CD28 Fab (SEQ ID NOs: 696, 697) (as listed by the source): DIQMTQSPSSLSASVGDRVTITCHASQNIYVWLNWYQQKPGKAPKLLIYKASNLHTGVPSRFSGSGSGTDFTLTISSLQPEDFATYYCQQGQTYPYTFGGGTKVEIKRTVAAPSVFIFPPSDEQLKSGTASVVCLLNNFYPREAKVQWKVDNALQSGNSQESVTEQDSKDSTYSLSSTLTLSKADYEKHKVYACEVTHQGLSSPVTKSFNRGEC
Sequence of anti-CD28 Fab (SEQ ID NOs: 696, 697) (as listed by the source): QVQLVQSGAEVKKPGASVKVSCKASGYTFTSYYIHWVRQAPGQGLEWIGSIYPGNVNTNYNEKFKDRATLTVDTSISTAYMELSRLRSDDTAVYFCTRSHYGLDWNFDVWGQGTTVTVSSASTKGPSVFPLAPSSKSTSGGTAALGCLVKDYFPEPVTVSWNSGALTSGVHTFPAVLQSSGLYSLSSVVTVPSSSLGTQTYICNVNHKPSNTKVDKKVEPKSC

Substance	EC50 [nM]
LCAAGASWPWPVCL [Peptide-138]	13.1

Same assay, conditions: Table 26; anti-CD28 Fab

Substance	EC50 [nM]
YCEGHAPEYIGKCL [Peptide-136]	44.9
HCSGHHWLQVWKCF [Peptide-130]	> 1000
YCEGHSSEYIQKCL [Peptide-129]	30.5

System: anti-CD28 scFv (SEQ ID NO: 9)
Sequence (as listed by the source): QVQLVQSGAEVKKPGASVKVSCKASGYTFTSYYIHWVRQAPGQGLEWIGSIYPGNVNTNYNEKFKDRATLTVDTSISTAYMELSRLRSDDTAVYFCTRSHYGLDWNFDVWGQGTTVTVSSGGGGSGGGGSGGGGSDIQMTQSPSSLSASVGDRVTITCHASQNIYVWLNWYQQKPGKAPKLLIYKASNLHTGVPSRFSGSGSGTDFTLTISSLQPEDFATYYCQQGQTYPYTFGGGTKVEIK
Assay: Kinetic binding of anti-CD28 scFv to peptides, bio-layer interferometry (Octet RED96)
Settings: Table 34; CD28 scFv titrated 100-12.5 nM, 200 nM peptide loaded
Experimental: (§1) Briefly, streptavidin biosensors were loaded with biotinylated peptides and baselined in buffer. […] After a short association period, sensors were transferred into buffer and the dissociation of bound anti-CD28 scFv was measured. The timing and steps of the experiment are shown in the accompanying table. Association and dissociation signals were recorded in real time and analyzed using a 1:1 binding model within the instrument software. Analysis using a 1:1 binding model enabled the calculation of the on and off rate constants as well as affinity, KD.
as §1, with “KD. FIGS. 70A-70F illustrate kinetic binding of anti-CD28 scFv binding to peptides as measured by Octet. FIGS. 70G-70U illustrate kinetic binding of peptides to the anti-CD28 scFv as measured by Octet.” for “KD.”

Substance	kdis [s⁻¹]	kon [M⁻¹ s⁻¹]
MDWCPRERWVDCFF [Peptide-9]	0.0123	32500
GYCHYWGDMVMWCG [Peptide-12]	0.00167	98700

Same assay, conditions: Table 36; anti-CD28 scFv titrated 100-12.5 nM, 200 nM peptide loaded

Substance	Kd [nM]	kdis [s⁻¹]	kon [M⁻¹ s⁻¹]
MDWCPRYLWHVCFA [Peptide-48]	21.1	0.00187	88900
MDWCPRSLWHECFA [Peptide-47]	51.8	0.00201	38900
MDWCPLHMWHECFS [Peptide-35]	127	0.00497	39000
MDWCPLYLWNECFN [Peptide-36]	68.7	0.00252	36700
MDWCPRDMWSECFA [Peptide-43]	192	0.0032	16700
MDWCPRDLWSECFF [Peptide-40]	79.9	0.0031	38800
MDWCPRDLWHLCFS [Peptide-39]	51.9	0.00265	51100
MDWCPRFMWDECFN [Peptide-45]	134	0.00364	27100
MHWCPVDLWYLCYN [Peptide-49]	21.1	0.00186	88200
MDWCPIDLWNECFF [Peptide-31]	71.8	0.00369	51400
MDWCPRERWVDCFF [Peptide-9]	278	0.0115	41500
MDWCPIYLWSECFN [Peptide-33]	52.8	0.00153	29000
MDWCPRDMWSVCFS [Peptide-44]	374	0.00812	21700
MDWCPVHLWSVCFA [Peptide-50]	48	0.00443	92300
MDWCPRHMWNYCFA [Peptide-46]	35.2	0.00218	61900
MDWCPRDLWHECFA [Peptide-38]	92.3	0.00277	30000
MDWCPRDMWDECFA [Peptide-42]	152	0.00433	28400
MDWCPIHLWHVCFN [Peptide-32]	49.9	0.00295	59100
MDWCPRDLWDLCFA [Peptide-37]	97.8	0.00351	35900
MNWCPKDIWYLCFN [Peptide-34]	88.8	0.00684	77000

System: PSMA Fab
Sequence (as listed by the source): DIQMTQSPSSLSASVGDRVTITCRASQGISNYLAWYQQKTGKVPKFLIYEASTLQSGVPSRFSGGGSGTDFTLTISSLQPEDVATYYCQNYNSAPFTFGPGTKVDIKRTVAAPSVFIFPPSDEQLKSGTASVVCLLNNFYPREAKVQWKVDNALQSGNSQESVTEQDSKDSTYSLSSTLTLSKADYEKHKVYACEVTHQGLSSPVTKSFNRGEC
Sequence (as listed by the source): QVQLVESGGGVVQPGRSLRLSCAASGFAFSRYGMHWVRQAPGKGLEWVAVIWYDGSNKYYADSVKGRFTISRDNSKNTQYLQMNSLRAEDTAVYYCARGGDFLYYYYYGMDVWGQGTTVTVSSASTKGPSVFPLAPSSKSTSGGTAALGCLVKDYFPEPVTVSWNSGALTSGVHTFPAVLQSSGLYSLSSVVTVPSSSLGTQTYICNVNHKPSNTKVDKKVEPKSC
Assay: Phage binding ELISA, PSMA Fab, with or without PSMA antigen (peptide-179 and peptide-180 libraries)
Settings: peptide-180 library clonal phage; background (no Fab)
Experimental: (§2) Once the phage optimization libraries were completed, phage libraries were bio-panned using PSMA Fab loaded beads. Multiple rounds of panning were performed where bacteriophage was allowed to bind to PSMA Fab loaded beads. washed. eluted, and amplified. After panning, phage infected bacteria were plated out and colonies picked into 96 well blocks. Clonal phage was then amplified and separated from bacterial cells via centrifugation. Phage containing supemnatants were tested in binding ELISAs against PSMA Fab coated plates in the presence or absence of saturating concentrations of PSMA antigen. Phage able to bind PSMA Fab were selected for sequence analysis if the binding signal was reduced in the presence of PSMA.
Clonal phage were harvested as crude supernatants and screened via standard ELISAs. Briefly, biotinylated PSMA Fab was captured on neutravidin coated plates. Prior to the addition of clonal phage. wells were incubated with blocking buffer and PSMA antigen or blocking buffer alone. Without washing or aspirating, clonal phage supernatants were then added to the wells and incubated for a short time. Wells were then washed followed by detection of bound phage using a horse radish conjugated anti-M13 antibody. Clonal phage of interest were then sent for sequence analysis.
as §2, with “beads, washed,” for “beads. washed.”, “supernatants” for “supemnatants”

Substance	Phage binding ELISA Background signal
Phage-2814 (PMKWCTPPWMCSYS)	0.0793
Phage-2840 (EPQWCIPKWMCDHM; not fully specified; cysteine pairing not given here)	0.0612
Phage-2792 (TQHWCTPIWMCEGL)	0.0865
Phage-2849 (VFPICKPSWMCVGM; not fully specified; cysteine pairing not given here)	0.0918
Phage-2845 (WDMLCRPAWMCEGF; not fully specified; cysteine pairing not given here)	0.0711
Phage-2798 (HFKWCIPPWMCLEI)	0.0798
Phage-2787 (LWKSCTPEWMCAEW)	0.0888
Phage-2801 (SDNWCKPEWMCVGH)	0.0738
Phage-2796 (LNNWCTPAWMCVGY)	0.0697
Phage-2859 (WEFVCKPEWMCTGF; not fully specified; cysteine pairing not given here)	0.0551
Phage-2837 (VDRWCTPPWMCDWQ; cysteine pairing not given here; also: large carrier left off)	0.0583
Phage-2868 (EPIRCVPQWMCVGF)	0.0882
Phage-2815 (IDKWCVPAWMCSPA)	0.0608
Phage-2818 (SVHMCKPPWMCQSM)	0.0587
Phage-2852 (VMPLCKPAWMCGGF; not fully specified; cysteine pairing not given here)	0.0869
Phage-2866 (TSPACVPSWMCVGF)	0.0552
Phage-2838 (HPKLCTPEWMCVIQ; not fully specified; cysteine pairing not given here)	0.0666
Phage-2847 (WMPRCVPEWMCAGF; not fully specified; cysteine pairing not given here)	0.1667
Phage-2863 (FNVMCRPAWMCDFL; not fully specified; cysteine pairing not given here)	0.1545
Phage-2848 (VMTVCKPAWMCTGF; not fully specified; cysteine pairing not given here)	0.1338

Substance	Phage binding ELISA Background signal
Phage-2793 (VTNWCTPPWMCEML)	0.0676
Phage-2860 (EWILCKPAWMCDGL; not fully specified; cysteine pairing not given here)	0.051
Phage-2788 (SVKWCTPSWMCTEW)	0.0817
Phage-2853 (MLPLCVPAWMCSGF; not fully specified; cysteine pairing not given here)	0.061
Phage-2835 (VAKLCTPAWMCSAM; not fully specified; cysteine pairing not given here)	0.0643
Phage-2846 (WEVRCVPEWMCVGF; not fully specified; cysteine pairing not given here)	0.0615
Phage-2803 (VKHVCMPEWMCYWS)	0.0652
Phage-2862 (TGAYCVPQWMCSGF; not fully specified; cysteine pairing not given here)	0.0638
Phage-2802 (TPKWCTPAWMCVVS)	0.0829
Phage-2850 (VNIRCEPAWMCMGF; not fully specified; cysteine pairing not given here)	0.0727
Phage-2844 (VVAMCKPAWMCAGL; not fully specified; cysteine pairing not given here)	0.0591
Phage-2843 (MLPICKPDWMCAGF; not fully specified; cysteine pairing not given here)	0.0724
Phage-2817 (EAKWCTPPWMCSLV)	0.0615
Phage-2816 (GDKWCKPSWMCDFF)	0.0602
Phage-2789 (VGKWCTPEWMCSGF)	0.058
Phage-2839 (DSHWCMPVWMCMGL; not fully specified; cysteine pairing not given here)	0.0737
Phage-2836 (DWKLCKPTWMCESL; not fully specified; cysteine pairing not given here)	0.0582
Phage-2806 (GATWCTPTWMCTGF)	0.0609
Phage-2865 (MSPLCKPVWMCAGF)	0.0586
